Data as given in ChEMBL document CHEMBL3392926, “Antiprotozoal Activity Profiling of Approved Drugs: A Starting Point toward Drug Repositioning”.

Assays:
cells [1] = format: functional, cell-based; conditions: Rattus norvegicus, L6, 72 h
Description: DNDI: Cytotoxicity in Vitro, 72 hour, in rat skeletal myoblast cells

cells [2] = format: functional, cell-based; conditions: Mus musculus, NMRI, BalbC or CD1 mice, Macrophage, 96 h
Description: DNDI: Cytotoxicity in Vitro, 96 hour, in mouse macrophages (infected-amastigotes)

Leishmania donovani [3] = experiment: microbe, parasite or virus in culture; format: functional, organism-based, MHOM/ET/67/L82; conditions: Leishmania donovani, MHOM/ET/67/L82, 72 h
Description: DNDI: Leish (axenic) in Vitro, 72 hour

Leishmania donovani [4] = experiment: microbe, parasite or virus in culture; format: functional, organism-based, MHOM/ET/67/L82; conditions: Leishmania donovani, MHOM/ET/67/L82, 96 h
Description: DNDI: Leish (macro) in Vitro, 96 hour

[5] = test system: Trypanosoma brucei rhodesiense; experiment: microbe, parasite or virus in culture; format: functional, organism-based, STIB 900; conditions: Trypanosoma brucei, STIB 900, 72 h
Description: DNDI: HAT in Vitro, 72 hour

Plasmodium falciparum = experiment: microbe, parasite or virus in culture; format: functional, organism-based, K1; conditions: Plasmodium falciparum, K1, 72 h
Description: DNDI: Malaria in Vitro, 72 hour

Trypanosoma cruzi = experiment: microbe, parasite or virus in culture; format: functional, organism-based, Tulahuen C4 (LacZ); conditions: Trypanosoma cruzi, Tulahuen C4 (LacZ), 96 h
Description: DNDI: Chagas in Vitro, 96 hour

SMILES | IC50 (cells [1]) | IC50 (cells [2]) | IC50 (Leishmania donovani [3]) | IC50 (Leishmania donovani [4]) | IC50 [5] | IC50 (Plasmodium falciparum) | IC50 (Trypanosoma cruzi)
Cc1cn([C@H]2C=C[C@@H](CO)O2)c(=O)[nH]c1=O [STAVUDINE] | 266 µM | > 134 µM | > 446 µM | > 134 µM | – | – | –
CN1CCC(=C2c3ccccc3CC(=O)c3sccc32)CC1 [KETOTIFEN] | 147 µM | > 97 µM | > 291 µM | > 97 µM | 15.2 µM | 0.75 µM | –
CC(=O)OCC(CCn1cnc2cnc(N)nc21)COC(C)=O [FAMCICLOVIR] | 180 µM | > 93.4 µM | > 311 µM | > 93.4 µM | – | > 156 µM | –
CN/C(=N\CCSCc1nc[nH]c1C)NC#N [CIMETIDINE] | 302 µM | > 119 µM | > 396 µM | > 119 µM | > 396 µM | 29.2 µM | –
CN(C)CCCN1c2ccccc2CCc2ccc(Cl)cc21 [CLOMIPRAMINE] | 19.8 µM | 31.8 µM | – | – | – | – | –
CN1CCC(=C2c3ccccc3CCc3sccc32)CC1 [PIZOTYLINE] | 45 µM | > 102 µM | – | > 33.9 µM | 3.99 µM | 1.86 µM | 30.6 µM
Cc1ncc([N+](=O)[O-])n1CCO [METRONIDAZOLE] | 339 µM | > 175 µM | – | > 175 µM | – | – | –
CSc1ccc2c(c1)N(CC[C@H]1CCCCN1C)c1ccccc1S2 | > 243 µM | > 81 µM | – | – | – | – | –
CCN(CC)CCCC(C)Nc1ccnc2cc(Cl)ccc12 (configuration not stated) [CHLOROQUINE] | 50.6 µM | > 58.9 µM | > 196 µM | > 58.9 µM | 3.81 µM | – | 99.2 µM
CC(C)CN(C[C@@H](O)[C@H](Cc1ccccc1)NC(=O)O[C@H]1CCOC1)S(=O)(=O)c1ccc(N)cc1 | 160 µM | > 59.3 µM | – | > 59.3 µM | 28.5 µM | 15.2 µM | –
Cc1oncc1C(=O)Nc1ccc(C(F)(F)F)cc1 [LEFLUNOMIDE] | 124 µM | > 111 µM | 21.8 µM | > 111 µM | – | > 18.5 µM | –
NC12CC3CC(CC(C3)C1)C2 [AMANTADINE] | 215 µM | > 198 µM | > 595 µM | > 198 µM | 52.8 µM | 5.67 µM | –
Nc1ccc(S(=O)(=O)Nc2ncccn2)cc1 [SULFADIAZINE] | 20.6 µM | 40.1 µM | – | > 12 µM | 18.4 µM | 1.44 µM | 24.9 µM
Clc1ccc(C(OCCN2CCCCC2)c2ccccc2)cc1 (configuration not stated) [CLOPERASTINE] | 43.4 µM | 90.9 µM | – | > 30.3 µM | 4.91 µM | 0.87 µM | 9.46 µM
Cc1ncc([N+](=O)[O-])n1CC(C)O (configuration not stated) [SECNIDAZOLE] | > 483 µM | > 161 µM | > 161 µM | > 161 µM | 28.7 µM | – | > 161 µM
Nc1nc(N)c2nc(-c3ccccc3)c(N)nc2n1 | 8.53 µM | > 11.8 µM | – | > 11.8 µM | 21.7 µM | 17.2 µM | 22.7 µM
O=C(O)c1nn(Cc2ccc(Cl)cc2Cl)c2ccccc12 [LONIDAMINE] | 273 µM | > 93.4 µM | 8.66 µM | > 93.4 µM | – | > 15.6 µM | –
CNCC[C@H](Oc1ccc(C(F)(F)F)cc1)c1ccccc1 | 15 µM | 32.3 µM | – | – | – | – | –
Cc1ncc([N+](=O)[O-])n1CC(O)CCl (configuration not stated) [ORNIDAZOLE] | > 408 µM | > 136 µM | > 136 µM | > 136 µM | 25.9 µM | – | –

SMILES | IC50 (cells [1]) | IC50 (cells [2]) | IC50 (Leishmania donovani [3]) | IC50 (Leishmania donovani [4]) | IC50 [5] | IC50 (Plasmodium falciparum) | IC50 (Trypanosoma cruzi)
OC(Cn1cncn1)(Cn1cncn1)c1ccc(F)cc1F [FLUCONAZOLE] | > 294 µM | > 98 µM | – | > 98 µM | – | – | 9.96 µM
CCc1nc(N)nc(N)c1-c1ccc(Cl)cc1 [PYRIMETHAMINE] | 2.51 µM | > 12.1 µM | – | > 12.1 µM | 6.75 µM | – | 5.71 µM
Cn1c([N+](=O)[O-])cnc1N1CCN(S(C)(=O)=O)C1=O [SATRANIDAZOLE] | > 311 µM | > 104 µM | 10.4 µM | > 104 µM | 18.7 µM | – | 19.1 µM
C[C@H](N)C12CC3CC(CC(C3)C1)C2 | 311 µM | > 167 µM | – | > 167 µM | 13.8 µM | 0.97 µM | –
Clc1ccc2c(c1)C(N1CCNCC1)=Nc1ccccc1O2 [AMOXAPINE] | 16.2 µM | 31.9 µM | – | – | – | – | –
Cc1nc2ccccn2c(=O)c1CCN1CCC(C(=O)c2ccc(F)cc2)CC1 [PIRENPERONE] | 232 µM | > 76.2 µM | – | > 76.2 µM | 30 µM | 4.35 µM | –
O=C(O)COCCN1CCN(C(c2ccccc2)c2ccc(Cl)cc2)CC1 (configuration not stated) [CETIRIZINE] | 149 µM | > 70.5 µM | – | > 70.5 µM | 99.5 µM | 20 µM | –
CC(C)CN(C[C@@H](O)[C@H](Cc1ccccc1)NC(=O)O[C@H]1CO[C@H]2OCC[C@H]21)S(=O)(=O)c1ccc(N)cc1 | – | – | – | > 54.8 µM | 31.4 µM | 46.9 µM | 92.2 µM
NC(=O)c1cnccn1 [PYRAZINAMIDE] | 458 µM | > 244 µM | > 812 µM | > 244 µM | > 812 µM | – | –
O=C1CN(/N=C/c2ccc([N+](=O)[O-])o2)C(=O)N1 [NITROFURANTOIN] | 90.3 µM | 125 µM | 2.12 µM | > 41.8 µM | 0.5 µM | – | 4.35 µM
CCN(CC)CCOc1ccc(/C(=C(/Cl)c2ccccc2)c2ccccc2)cc1 [ENCLOMIPHENE] | 13.1 µM | 24.6 µM | – | – | – | – | –
CCn1cc(C(=O)O)c(=O)c2cc(F)c(N3CCNCC3)nc21 [ENOXACIN] | 25 µM | > 93.7 µM | > 312 µM | > 93.7 µM | – | 76.8 µM | –
OCCN1CCN(CCCN2c3ccccc3Sc3ccc(C(F)(F)F)cc32)CC1 [FLUPHENAZINE] | 11.5 µM | 22.9 µM | – | – | – | – | –
Nc1ccc(S(=O)(=O)c2ccc(N)cc2)cc1 [DAPSONE] | 204 µM | > 121 µM | > 403 µM | > 121 µM | – | – | –
CC(=O)N1CCN(c2ccc(OCC3COC(Cn4ccnc4)(c4ccc(Cl)cc4Cl)O3)cc2)CC1 (configuration not stated) [KETOCONAZOLE] | 51 µM | – | 38.8 µM | > 18.8 µM | 33.1 µM | – | 0.27 µM
Nc1nc(O)c2ncn(CCC(CO)CO)c2n1 [PENCICLOVIR] | 220 µM | > 118 µM | > 395 µM | > 118 µM | > 395 µM | – | –
Nc1nc2c(ncn2COC(CO)CO)c(=O)[nH]1 [GANCICLOVIR] | 179 µM | > 118 µM | > 392 µM | > 118 µM | – | > 196 µM | –
Cc1cn([C@H]2C[C@H](N=[N+]=[N-])[C@@H](CO)O2)c(=O)[nH]c1=O [ZIDOVUDINE] | 207 µM | > 112 µM | > 374 µM | > 112 µM | – | – | –
CCCSc1ccc2[nH]c(NC(=O)OC)nc2c1 [ALBENDAZOLE] | 0.41 µM | 11.3 µM | > 113 µM | > 3.77 µM | 14.7 µM | – | 12.3 µM
